Patent US9689017B2, “Method of semi-solid state fermentation for producing surfactin from a mutant strain of Bacillus subtilis subsp” (priority 2014, dated 2017)
Like-named read-outs stand apart in the source and are kept apart here. Starred links: 1 amine or outer side, 2 acyl side, 3 side chain; linkers in the order of their positions; H or OH if unused. Positions of bridges follow the written chain, without caps; N, C: chain ends. Non-standard residues stand in square brackets, D forms with d. Residues, ends and D or L forms follow the SMILES beside them. X1 = CC(C)CCCCCCCCC[C@H](CC(=O)[*:1])O[*:2]

Experiments:
[1] = system: Aeromonas hydrophila; experiment: Antimicrobial test for surfactin (MIC, 96-well broth dilution); format: cell-based; settings: 16 hrs at 37° C., read-out: minimum inhibitory concentration (MIC)
Protocol: (§1) Escherichia coli DH5α, Vibrio harveyi, Vibrio alginolyticus, Vibrio anguillarum, Vibrio salmonicida, Aeromonas hydrophila and Staphylococcus epidermidis are separately inoculate onto LBA (E. coli DH5α) or TSA (+1.5% NaCl) and incubate at 37° C. for 16 hrs. Scrap off and dissolve the colonies in designated medium. When OD540 is at 1 (the concentration is around 1×10^9 colonies/c.c.), take 500 μl of the bacterial culture and add to 500 μl of LB or TSB (+1.5% NaCl) to make the bacterial concentration at […]; add 130 μl of the bacterial culture to each well of a 96-well plate, the concentration of bacterial culture is 1×10^4.5 colonies/c.c., before addition of 20 μl of chemically synthesized antimicrobial peptides at various concentrations. After 16 hrs of incubation at 37° C., the bacterial culture that is clear indicates the lowest concentration of the antimicrobial peptide, that is, minimum inhibitory concentration (MIC).

[2] = system: Escherichia coli DH5α; experiment: as above; format: cell-based; settings: 16 h, E. coli, 16 hrs at 37° C., read-out: minimum inhibitory concentration (MIC)
Protocol: as §1

[3] = system: Staphylococcus epidermidis; experiment: as above; format: cell-based; settings: 16 hrs at 37° C., read-out: minimum inhibitory concentration (MIC)
Protocol: as §1

[4] = system: Vibrio alginolyticus; experiment: as above; format: cell-based; settings: 16 hrs at 37° C., read-out: minimum inhibitory concentration (MIC)
Protocol: as §1

[5] = system: Vibrio anguillarum; experiment: as above; format: cell-based; settings: 16 hrs at 37° C., read-out: minimum inhibitory concentration (MIC)
Protocol: as §1

[6] = system: Vibrio harveyi; experiment: as above; format: cell-based; settings: 16 hrs at 37° C., read-out: minimum inhibitory concentration (MIC)
Protocol: as §1

[7] = system: Vibrio salmonicida; experiment: as above; format: cell-based; settings: 16 hrs at 37° C., read-out: minimum inhibitory concentration (MIC)
Protocol: as §1

[8] = literature value, test organism not given; cited from earlier work
[9] = Antimicrobial test for surfactin, summary statement over the tested bacteria; format: cell-based; settings: text summary of Table 2, all tested bacteria; read-out: minimum inhibitory concentration (MIC)
Protocol: as §1

CC(C)CCCCCCCCC[C@@H]1CC(=O)N[C@@H](CCC(=O)O)C(=O)N[C@@H](CC(C)C)C(=O)N[C@H](CC(C)C)C(=O)N[C@@H](C(C)C)C(=O)N[C@@H](CC(=O)O)C(=O)N[C@H](CC(C)C)C(=O)N[C@@H](CC(C)C)C(=O)O1 [Bacillus subtilis subsp. ATCC21332, surfactin] (EL[dL]VD[dL]L; linker N-C via X1)
129 µM: MIC ([1]; Aeromonas hydrophila, 16 h) | MIC ([3]; 16 h) | MIC ([4]; 16 h) | MIC ([5]; Vibrio anguillarum, 16 h) | MIC ([6]; 16 h) | MIC ([7]; Aliivibrio salmonicida, 16 h)
193 µM: MIC [2]

CC(C)CCCCCCCCC[C@@H]1CC(=O)N[C@@H](CCC(=O)O)C(=O)N[C@@H](CC(C)C)C(=O)N[C@H](CC(C)C)C(=O)N[C@@H](C(C)C)C(=O)N[C@@H](CC(=O)O)C(=O)N[C@H](CC(C)C)C(=O)N[C@@H](CC(C)C)C(=O)O1 [surfactin] (EL[dL]VD[dL]L; linker N-C via X1)
50 µg/mL: minimum inhibitory concentration (MIC) [8]

CC(C)CCCCCCCCC[C@@H]1CC(=O)N[C@@H](CCC(=O)O)C(=O)N[C@@H](CC(C)C)C(=O)N[C@H](CC(C)C)C(=O)N[C@@H](C(C)C)C(=O)N[C@@H](CC(=O)O)C(=O)N[C@H](CC(C)C)C(=O)N[C@@H](CC(C)C)C(=O)O1 [High-yield mutant strain, surfactin] (EL[dL]VD[dL]L; linker N-C via X1)
96.5 µM: MIC [1] | MIC [3] | MIC [4] | MIC [5] | MIC [6] | MIC [7] | MIC [9]
